We go through 15 molecules from PubChem BioAssay (NCI).

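Following 48 hours of exposure in 96-well plates, responses at five concentrations were used to interpolate endpoints linearly. GI50 = concentration required for 50% inhibition of growth. The concentration for full growth arrest is given as TGI.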

Some test systems named below: EKVX NSCLC; K-562 leukemia; MALME-3M melanoma; NCI-H23 lung; NCI-H460 lung; NCI-H522 lung; UO-31 renal; BT-549 breast; HS 578T breast.
Holding throughout (assay): NCI-60 cell line screen, 48 h

Consider `C[CH2][Sn]([CH2]C)([O]C(=O)c1ccc(F)cc1)[O]C(=O)c1ccc(F)cc1`, for which the GI50 with EKVX NSCLC is greater than 100 µM; in the assay on K-562 leukemia, 16.7 µM; in the assay with MALME-3M melanoma, 16.6 µM; with NCI-H23 lung, 17.3 µM; with NCI-H460 lung, greater than 100 µM; in the assay on NCI-H522 lung, 1.71 µM. Moreover, the GI50 in the assay with UO-31 renal is 32.8 µM. Further, the TGI is greater than 100 µM in the assay with EKVX NSCLC; 64.7 µM in the assay with K-562 leukemia; 34.2 µM in the assay on MALME-3M melanoma; 32.8 µM in the assay with NCI-H23 lung; greater than 100 µM in the assay on NCI-H460 lung; 4.48 µM with NCI-H522 lung. The molecule also registered a TGI in the assay on UO-31 renal greater than 56.3 µM.

Turning to `NC(=O)c1ccc(Cl)c([N+](=O)[O-])c1`, the TGI in the assay with EKVX NSCLC, in the assay on K-562 leukemia, in the assay on MALME-3M melanoma, with NCI-H23 lung, in the assay with NCI-H460 lung and with NCI-H522 lung was greater than 100 µM each time. Also, the TGI in the assay on UO-31 renal is greater than 100 µM.

In the case of `COC(=O)CC[C@]12C[C@]13CC[C@]1(C)C4C(C)C[C@]5(CC(C)C(=O)O5)OC4CC1(C)C3CCC2C(C)(C)O` (stereo partly drawn), the TGI with EKVX NSCLC, in the assay with K-562 leukemia, in the assay on MALME-3M melanoma, in the assay with NCI-H23 lung, in the assay on NCI-H460 lung and in the assay with NCI-H522 lung was greater than 100 µM each time. The same molecule gave a TGI in the assay with UO-31 renal greater than 100 µM.

Regarding `CCC(CO)Nc1nc2c(c(=O)n(C)c(=O)n2C)n1CCO` (stereo not drawn), the TGI in the assay with EKVX NSCLC, in the assay on K-562 leukemia, in the assay with MALME-3M melanoma, in the assay with NCI-H23 lung and in the assay on UO-31 renal was greater than 100 µM throughout.

`Nc1c2ccccc2nc2c(C(=O)Nc3ccc(S(N)(=O)=O)cc3)cccc12`: the TGI in the assay on EKVX NSCLC, in the assay on K-562 leukemia, in the assay on MALME-3M melanoma, in the assay with NCI-H23 lung, with NCI-H460 lung and in the assay with NCI-H522 lung was greater than 100 µM in each case. For the same molecule, the TGI in the assay with UO-31 renal was greater than 100 µM.

For `c1ccc(OC2=NC3=S(S2)SC(Oc2ccccc2)=N3)cc1`, the TGI is 48.3 µM in the assay on EKVX NSCLC; 38 µM in the assay with K-562 leukemia; 41.7 µM with MALME-3M melanoma; 49 µM in the assay with NCI-H23 lung; greater than 100 µM in the assay with NCI-H460 lung; 36.1 µM in the assay on NCI-H522 lung. Further, in the assay with UO-31 renal, the TGI amounted to 36.3 µM.

For `CC(C)(C)N=NC(C)(C)N=C=O`, the TGI with EKVX NSCLC, in the assay with K-562 leukemia, in the assay with MALME-3M melanoma, in the assay with NCI-H23 lung, in the assay on NCI-H460 lung and in the assay on NCI-H522 lung was greater than 100 µM in each case. Besides, the TGI in the assay on UO-31 renal was greater than 100 µM.

Regarding `CC(=O)[O-].N.N.N.N.[Co+3].[O-][Cl+3]([O-])([O-])[O-].[OH3+]`, the GI50 in the assay with EKVX NSCLC was greater than 100 µM; in the assay with K-562 leukemia, greater than 100 µM; in the assay on MALME-3M melanoma, greater than 100 µM; with NCI-H23 lung, greater than 100 µM; in the assay on NCI-H460 lung it was greater than 100 µM; with NCI-H522 lung it was 49.5 µM. Further, the GI50 with UO-31 renal is 84.6 µM. The TGI in the assay on EKVX NSCLC, in the assay on K-562 leukemia, with MALME-3M melanoma, with NCI-H23 lung, in the assay with NCI-H460 lung and in the assay on NCI-H522 lung was greater than 100 µM throughout. In the assay with UO-31 renal, the TGI is greater than 100 µM.

`C=C1C[C@@H]2C[C@@H](C)CC(O)[C@]2(CCCN)C1O` (stereo partly drawn): the TGI in the assay with EKVX NSCLC, in the assay with K-562 leukemia, in the assay on MALME-3M melanoma, in the assay on NCI-H23 lung, in the assay on NCI-H460 lung and with NCI-H522 lung was greater than 100 µM throughout. The TGI with UO-31 renal is greater than 100 µM.

On to `O=c1/c(=N\Nc2ccccc2)c2cccc3ccc4cccc1c4c32`, for which the TGI in the assay on BT-549 breast, with EKVX NSCLC, in the assay on HS 578T breast, with K-562 leukemia, with MALME-3M melanoma and in the assay with NCI-H23 lung was greater than 100 µM in each case. Further, the TGI with NCI-H522 lung and with UO-31 renal was greater than 100 µM each time.

In the case of `CC1c2[nH]c3ccccc3c2CCN1O` (stereo not drawn), the TGI in the assay with EKVX NSCLC, with K-562 leukemia, with MALME-3M melanoma, in the assay on NCI-H23 lung, with NCI-H522 lung and with UO-31 renal was greater than 100 µM throughout.

Consider `COc1cc2cnc3c4cc(OCc5ccccc5)ccc4ccc3c2cc1OC`, for which the TGI is greater than 100 µM in the assay with EKVX NSCLC; greater than 100 µM in the assay with K-562 leukemia; greater than 100 µM in the assay on MALME-3M melanoma; 75.7 µM with NCI-H23 lung; greater than 100 µM with NCI-H460 lung; greater than 100 µM in the assay on NCI-H522 lung. The TGI in the assay on UO-31 renal is greater than 100 µM.

Regarding `O/N=C/c1ccc(O)c(O)c1`, the TGI with EKVX NSCLC, with K-562 leukemia, with MALME-3M melanoma, in the assay on NCI-H23 lung, in the assay with NCI-H460 lung and in the assay with NCI-H522 lung was greater than 100 µM each time. The molecule also had a TGI in the assay on UO-31 renal greater than 100 µM.

For `COc1ccc([C@@H]2OC(=O)C3C2C(=O)O[C@H]3c2ccc(OC)c(OC)c2)cc1OC` (stereo partly drawn), the TGI with EKVX NSCLC, with K-562 leukemia, in the assay with MALME-3M melanoma, in the assay with NCI-H23 lung, in the assay on NCI-H460 lung and with NCI-H522 lung was greater than 100 µM in each case. In addition, the TGI in the assay with UO-31 renal is greater than 100 µM.

On to `O=C([O-])CC(=O)[O-].[NH-][C@@H]1CCCC[C@H]1[NH-].[Pt+4]`, for which the GI50 was 32.8 µM with BT-549 breast; greater than 100 µM in the assay on EKVX NSCLC; 19.6 µM with HS 578T breast; 3.66 µM in the assay with K-562 leukemia; 6.4 µM with MALME-3M melanoma; 16.9 µM in the assay on NCI-H23 lung. The GI50 in the assay with NCI-H460 lung was 3.17 µM; with NCI-H522 lung, 18.7 µM; with UO-31 renal it was 18.9 µM. Also, the TGI in the assay with BT-549 breast was greater than 100 µM; with EKVX NSCLC it was greater than 100 µM; in the assay with HS 578T breast, greater than 100 µM; with K-562 leukemia it was greater than 100 µM; with MALME-3M melanoma, greater than 100 µM; in the assay on NCI-H23 lung, greater than 97.3 µM. Moreover, the TGI with NCI-H460 lung, in the assay on NCI-H522 lung and with UO-31 renal was greater than 100 µM throughout.
